From PMC11010885, “Functional Analysis and Tissue-Specific Expression of Calcitonin and CGRP with RAMP-Modulated Receptors CTR and CLR in Chickens” (Animals : an Open Access Journal from MDPI, 2024)

Columns and labels:
Format in all cases: cell-based
chicken CTR + RAMP1 [1] = assay: MAPK/ERK pGL4-SRE-luciferase reporter assay, CTR + RAMP1 in CHO cells; conditions: 10^−12 M to 10^−6 M, 6 h, mean ± SEM, n = 3, read-out: EC50, MAPK/ERK signaling pathway
Method: (§1) Chinese hamster ovary (CHO) cells were cultured in Dulbecco’s modified Eagle’s medium (DMEM) supplemented with 10% (vol/vol) fetal bovine serum (HyClone, Logan, UT, USA), 100 U/mL penicillin G and 100 μg/mL streptomycin. The cells were maintained in a 90 mm culture dish (Nunc, Rochester, NY, USA) and incubated at 37 °C with 5% CO2. To investigate the signaling pathways associated with each receptor in CHO cells, three different reporter systems (pGL3-CRE-luciferase, pGL4-SRE-luciferase, and pGL3-NFAT-RE-luciferase) were utilized to monitor intracellular cAMP/PKA and MAPK/ERK signaling pathways and calcium mobilization of the activated receptors, respectively.
(§2) Prior to the transfection procedure, the cells were initially cultured in 6-well plates (Nunc, Rochester, NY, USA), maintaining a seeding density of approximately 300,000 cells per well. Upon achieving approximately 70% confluence, the cells underwent a co-transfection process. […] The fluorescence activity of the luciferase in each treatment group was measured using a multimode microplate reader (TriStar LB941, Berthold Technologies, Bad Wildbad, Germany). Finally, the fluorescence activity of each treatment group was expressed as a relative increase ratio compared to the control group.

chicken CLR + RAMP3 [2] = assay: MAPK/ERK pGL4-SRE-luciferase reporter assay, CLR + RAMP3 in CHO cells; conditions: 10^−12 M to 10^−6 M, 6 h, mean ± SEM, n = 3, read-out: EC50, MAPK/ERK signaling pathway
Method: as §1, §2

chicken CLR [3] = assay: cAMP/PKA pGL3-CRE-luciferase reporter assay, CLR + pcDNA in CHO cells
Method: as §1
(§3) Prior to the transfection procedure, the cells were initially cultured in 6-well plates (Nunc, Rochester, NY, USA), maintaining a seeding density of approximately 300,000 cells per well. Upon achieving approximately 70% confluence, the cells underwent a co-transfection process. This procedure entailed the introduction of 700 ng of various luciferase reporter constructs (namely, pGL3-CRE-luciferase, pGL4-SRE-luciferase, or pGL3-NFAT-RE-luciferase) combined with 200 ng of a specific receptor plasmid (CTR or CLR) and 1000 ng of either RAMP1, RAMP2, RAMP3 expression plasmids, or alternatively, the empty pcDNA3.1 (+) vector. A volume of 5.7 μL of PEI MAX was used in 200 μL of buffer following the manufacturer’s protocol. After 24 h of incubation, the transfected CHO cells were subcultured in 96-well plates and passaged for an additional 24 h before peptide treatment. Then, the medium from the 96-well plates was removed, and the cells were treated with chicken CT/CGRP-containing medium (or untreated medium as a control) at concentrations ranging from 10^−12 M to 10^−6 M for 6 h. Subsequently, the cells were harvested for luciferase assays by lysing them in 1 × passive lysis buffer. To measure the luciferase activity of the cell lysate, 40 μL of luciferase assay reagent (Promega, Madison, WI, USA) was mixed with the cell lysate following the manufacturer’s instructions. The fluorescence activity of the luciferase in each treatment group was measured using a multimode microplate reader (TriStar LB941, Berthold Technologies, Bad Wildbad, Germany). Finally, the fluorescence activity of each treatment group was expressed as a relative increase ratio compared to the control group.

chicken CLR + RAMP2 [4] = assay: Calcium pGL3-NFAT-RE-luciferase reporter assay, CLR + RAMP2 in CHO cells; conditions: CLR + RAMP2, CHO cells, pGL3-NFAT-RE-luciferase, 10^−12 M to 10^−6 M, 6 h; mean ± SEM, n = 3; read-out: EC50, calcium signaling pathway
Method: as §1
as §3, with “Subsequently, the cells were harvested for luciferase assays by lysing them in 1 × passive lysis buffer. To measure the luciferase activity of the cell lysate, 40 μL of luciferase assay reagent (Promega, Madison, WI, USA) was mixed with the cell lysate following the manufacturer’s instructions.” left out

chicken CLR + RAMP3 [5] = assay: Calcium pGL3-NFAT-RE-luciferase reporter assay, CLR + RAMP3 in CHO cells; conditions: 10^−12 M to 10^−6 M, 6 h, mean ± SEM, n = 3, read-out: EC50, calcium signaling pathway
Method: as §1, §2

chicken CTR + RAMP1 [6] = assay: cAMP/PKA pGL3-CRE-luciferase reporter assay, CTR + RAMP1 in CHO cells; conditions: 10^−12 M to 10^−6 M, 6 h, mean ± SEM, n = 3, read-out: EC50, cAMP/PKA signaling pathway
Method: as §1, §2

chicken CTR + RAMP3 [7] = assay: Calcium pGL3-NFAT-RE-luciferase reporter assay, CTR + RAMP3 in CHO cells; conditions: 10^−12 M to 10^−6 M, 6 h, mean ± SEM, n = 3, read-out: EC50, calcium signaling pathway
Method: as §1, §2

chicken CLR + RAMP3 [8] = assay: Western blot CREB phosphorylation, CLR + RAMP3 in CHO cells; conditions: 10 nM, 10 min, n = 3
Method: (§4) To assess whether the activation of chicken CTR and CLR, along with the presence of RAMPs, can augment the phosphorylation levels of cAMP response element-binding protein (CREB), 200 ng of CTR or CLR expression plasmids were combined with 1000 ng of chicken RAMPs or an empty pcDNA3.1 (+) vector in a 100 μL buffer. The resulting mixture was then transfected into CHO cells in a 12-well plate (Nunc, Rochester, NY, USA) using 3.6 μL of PEI MAX transfection reagent. After a 24 h incubation period, the cells were exposed to chicken CT (10 nM) or CGRP (10 nM) for 10 min. Subsequently, the culture medium was removed, and the cells were lysed according to the manufacturer’s instructions. Western blot analysis was performed to quantify the levels of CREB and phosphorylated CREB (p-CREB). The optical densities were analyzed and normalized using the software, ImageJ 1.52a (National Institutes of Health, Bethesda, MD, USA). The relative expression of p-CREB/CREB was determined by calculating the ratio of the optical density to that of the control without peptide treatment (0 min).

chicken CTR + RAMP2 = assay: Calcium pGL3-NFAT-RE-luciferase reporter assay, CTR + RAMP2 in CHO cells; conditions: CTR + RAMP2, CHO cells, pGL3-NFAT-RE-luciferase, 10^−12 M to 10^−6 M, 6 h; mean ± SEM, n = 3; read-out: EC50, calcium signaling pathway
Method: as §1
as §3, with “Subsequently, the cells were harvested for luciferase assays by lysing them in 1 × passive lysis buffer. To measure the luciferase activity of the cell lysate, 40 μL of luciferase assay reagent (Promega, Madison, WI, USA) was mixed with the cell lysate following the manufacturer’s instructions.” left out

chicken CTR = assay: cAMP/PKA pGL3-CRE-luciferase reporter assay, CTR + pcDNA in CHO cells
Method: as §1, §3

chicken CTR + RAMP3 [9] = assay: cAMP/PKA pGL3-CRE-luciferase reporter assay, CTR + RAMP3 in CHO cells; conditions: 10^−12 M to 10^−6 M, 6 h, mean ± SEM, n = 3, read-out: EC50, cAMP/PKA signaling pathway
Method: as §1, §2

chicken CLR + RAMP2 [10] = assay: MAPK/ERK pGL4-SRE-luciferase reporter assay, CLR + RAMP2 in CHO cells; conditions: 10^−12 M to 10^−6 M, 6 h, mean ± SEM, n = 3, read-out: EC50, MAPK/ERK signaling pathway
Method: as §1, §2

chicken CLR [11] = assay: MAPK/ERK pGL4-SRE-luciferase reporter assay, CLR + pcDNA in CHO cells; conditions: 10^−12 M to 10^−6 M, 6 h, mean ± SEM, n = 3, read-out: EC50, MAPK/ERK signaling pathway
Method: as §1, §2

chicken CTR + RAMPs = assay: Western blot CREB phosphorylation, CTR + RAMPs in CHO cells; conditions: 10 nM, 10 min, n = 3
Method: as §4

chicken CTR + RAMP3 [12] = assay: MAPK/ERK pGL4-SRE-luciferase reporter assay, CTR + RAMP3 in CHO cells; conditions: 10^−12 M to 10^−6 M, 6 h, mean ± SEM, n = 3, read-out: EC50, MAPK/ERK signaling pathway
Method: as §1, §2

calcitonin gene-related peptide [CGRP]
EC50 (chicken CTR + RAMP1 [1]): 0.41 ± 0.08 nM | EC50 (chicken CLR + RAMP3 [2]): 4.31 ± 1.73 nM | EC50 (chicken CLR [3]; CLR + pcDNA, CHO cells, pGL3-CRE-luciferase, 10^−12 M to 10^−6 M, 6 h, mean ± SEM, n = 3, read-out: EC50, cAMP/PKA signaling pathway): > 100 nM | activation (cAMP production), in words (chicken CLR [3]; independent CLR): no effect on CLR | EC50 (chicken CLR + RAMP2 [4]): > 100 nM | EC50 (chicken CLR + RAMP3 [5]): > 100 nM | EC50 (chicken CTR + RAMP1 [6]): 0.1 ± 0.01 nM | EC50 (chicken CTR + RAMP3 [7]): > 100 nM | CREB phosphorylation (p-CREB/CREB vs. control, 0 min) (chicken CLR + RAMP3 [8]): significantly enhanced the CREB phosphorylation | EC50 (chicken CTR + RAMP2): > 100 nM | EC50 (chicken CTR; CTR + pcDNA, CHO cells, pGL3-CRE-luciferase, 10^−12 M to 10^−6 M, 6 h, mean ± SEM, n = 3, read-out: EC50, cAMP/PKA signaling pathway): 2.35 ± 0.63 nM | activation (cAMP production), in words (chicken CTR; independent CTR): preferentially activates CTR | EC50 (chicken CTR + RAMP3 [9]): 0.24 ± 0.07 nM | EC50 (chicken CLR + RAMP2 [10]): 90.9 ± 17.4 nM | EC50 (chicken CLR [11]): > 100 nM | CREB phosphorylation (p-CREB/CREB vs. control, 0 min) (chicken CTR + RAMPs): significantly increased the CREB phosphorylation | EC50 (chicken CTR + RAMP3 [12]): 0.67 ± 0.24 nM
